Laboratory results from patent publication US20110091872A1, “DETECTING TRIAZOLE RESISTANCE IN ASPERGILLUS” (priority 2007, published 2011).
Converted amounts (≈) assume the structure as drawn. Where two headings read alike, the source gives them in different places.

What was measured:
[1] = test system: A. fumigatus wild type strain ATCC 13073; experiment: NCCLS M38-A microdilution MIC, parent strain ATCC 13073; format: cell-based; conditions: Aspergillus fumigatus, ATCC13073, RPMI 1640, 48 hours, 37° C.
Description: (§1) The eight putative C6 transcription factors (TFs) were amplified from a well-characterized itraconazole-resistant strain known to over-express ABC transporters. Nascimento et al. Antimicrob. Agents Chemother. (2003) 47:1719-26. The putative mutant TFs were introduced into a wild type recipient strain and transformants screened for resistance to 10 μg/mlitraconazole. Minimum inhibition concentrations (MICs) were determined by the National Committee for Clinical Laboratory Standards (NCCLS) M38-A microdilution method in RPMI 1640 medium in the presence of 0.01 to 16.0 μg/ml after 48 hours of growth at 37° C.

[2] = test system: AzRF1-M (homologous recombinant AzRF1-mutant of ATCC 13073); experiment: NCCLS M38-A microdilution MIC, mutant AzRF1-M; format: cell-based, Aspergillus fumigatus; conditions: strain AzRF1-M, RPMI 1640, 48 hours, 37° C.
Description: as §1
(§2) Plasmid pRG3-AMA1-AzRF1 was transformed into the triazole susceptible Ku80 strain. The derived mutant AzRF1-A, containing the mutant AzRF1 in an autonomous replicating plasmid was also resistant to triazole drugs (table 2). […] Strain AzRF1-R had restored sensitivity to triazole drugs (table 2).

[3] = test system: KU80 DELTA (triazole susceptible Ku80 strain); experiment: NCCLS M38-A microdilution MIC, parent strain KU80 DELTA; format: cell-based; conditions: Aspergillus fumigatus, 48 h
Description: as §1, §2

[4] = test system: AzRF1-H (homologous recombinant AzRF1-mutant of KU80); experiment: NCCLS M38-A microdilution MIC, mutant AzRF1-H; format: cell-based; conditions: Aspergillus fumigatus; strain AzRF1-H; RPMI 1640, 48 hours, 37° C.
Description: as §1

[5] = test system: AzRF1-A (KU80 with mutant AzRF1 in autonomously replicating plasmid pRG3-AMA1-AzRF1); experiment: NCCLS M38-A microdilution MIC, mutant AzRF1-A; format: cell-based; conditions: Aspergillus fumigatus; strain AzRF1-A; RPMI 1640, 48 hours, 37° C.
Description: as §1, §2

[6] = test system: AzRF1-R (derived from AzRF1-A after plasmid eviction); experiment: NCCLS M38-A microdilution MIC, strain AzRF1-R; format: cell-based; conditions: Aspergillus fumigatus, 48 h
Description: as §1, §2

[7] = test system: wild type recipient strain transformed with mutant AzRF1; experiment: NCCLS M38-A microdilution MIC, transformants carrying mutant TF AzRF1; format: cell-based; conditions: Aspergillus fumigatus, 48 h
Description: as §1
AzRF1 is a C6 transcription factor that is closely related to Tac1 of C. albicans with 35% sequence identity to the Tac1 proteins (GeneBank accession number ABD85289.1).

[8] = Aspergillus fumigatus, ATCC13073, read-out: MIC

| SMILES | MIC [1] [µg/mL] | MIC [2, 8] [µg/mL] | MIC [2] [µg/mL] | MIC [3] [µg/mL] | MIC [4] [µg/mL] | MIC [5] [µg/mL] | MIC [6] [µg/mL] | MIC [7] [µg/mL] |
| --- | --- | --- | --- | --- | --- | --- | --- | --- |
| CCC(C)n1ncn(-c2ccc(N3CCN(c4ccc(OCC5COC(Cn6cncn6)(c6ccc(Cl)cc6Cl)O5)cc4)CC3)cc2)c1=O (stereo not shown) [ITRACONAZOLE, itraconazole] | 0.25 (≈ 0.354 µM) | > 16 | >16.0 | 0.25 (≈ 0.354 µM) | > 16 | > 16 | > 16 | > 16 |
| C[C@@H](c1ncncc1F)[C@](O)(Cn1cncn1)c1ccc(F)cc1F [VORICONAZOLE, voriconazole] | 0.06 (≈ 0.172 µM) | > 8 | >8.0 | 0.06 (≈ 0.172 µM) | > 8 | > 8 | > 8 | > 8 |
